Reference: patent US20030215529A1, “Composition and pharmaceutical preparation containing same for the treatment of herpes and related viral infections” (Dalhousie University, priority 1998, published 2003)
≈ marks a conversion by molar mass, not a printed value.

Columns and labels:
HSV-1 [1] = settings: Xu et al., Heterocycles 1994; cited from earlier work
[2] = Tabba et al.; cited from earlier work
HSV-1, Strain no. SM44 = assay: HSV-1 skin lesion model in guinea pigs; assay type: in vivo, guinea pig; settings: for Extent of Skin Pathological Changes EPC (Mean ± SD) / Inhibition rate IR: Acyclovir cream 3 g %
From the text: Material. […] Virus is Herpes simplex type 1 (HSV-1, Strain no. SM44), imported from The American Type Culture Collection. The virus strain was proliferated and preserved by the Department of Virological Diagnosis, Institution of Virology, Chinese Preventative Medical Academy. “Bunched needle” refers to seven individual needles (size No. 7) bunched together as one bunch and seven bunches were put together as one “Bunched needle”. Other related apparatuses: All other apparatuses and reagents were provided by the Department of Virological Diagnosis, Chinese Preventative Medical Academy.
Animals: Guinea pigs, half male and half female, 200-250 grams (animal license no. YDHZ SCXK11-00-0006), supplied by the Animal Center of the Chinese Medical Academy and Peking Union Medical College.
HSV-1 cutaneous lesion in guinea pig. The animals were grouped in 5. Animals within each group will be the same gender and have similar body weight. The hair was removed from dorsal side of the animal and the skin was abraded with needles as described above. The entire abraded area was infected with 150 μl of HSV-1 stock suspension.
Typical herpes lesions appeared on the infected area on the 4th day of infection. The extent of pathological changes was scored as described below. […] The amount of cream given to each animal was 1.5 gram per dose twice daily for a six-day duration.
Daily records of the pathological changes infected area were made according to the following criteria:
When the skin lesions developed up to ¼ of the total area, the pathological changes were scored as 1.0-1.6;
When the skin lesions developed on 2/4 of the total area, the pathological changes were scored as 1.7-2.4;
When the skin developed on ¾ of the total area, the pathological changes were scored as 2.5-3.2;
When the skin lesions developed 4/4 of the total areas, the pathological changes were scored as 3.3-4.0;
When the skin herpes scars developed up to ¼ of the total areas, the pathological changes were scored as 0.9-1.0;
When the skin herpes scars were up to 2/4 of the total areas, the pathological changes were scored as 0.7-0.8;
When the skin herpes scars were up to ¾ of the total areas, the pathological changes were scored as 0.5-0.6;
When the skin herpes scars were up to 4/4 of the total areas, the pathological changes were scored as 0.2-0.4;
When the skin herpes scars were all detached and lesions healed, the pathological changes were scored as 0.

HSV-2, Strain no. 333 [3] = assay: HSV-2 mouse vaginal infection model, survival; assay type: in vivo, BALB/c mice; settings: 3% Acyclovir cream
Description: (Batch no. 200205), provided by the Department of Biology, the Chinese University of Hong Kong, Hong Kong. […] Virus is Herpes simplex type II (HSV-2, Strain no. 333, batch no. 200104010), provided by the Department of Virological Diagnosis, Institution of Virology, Chinese Preventative Medical Academy. Needles for vaginal tract infection (size no. of 12) were prepared by the Department of Virological Diagnosis, Chinese Preventative Medical Academy. African green monkey kidney cells (Vero cells) were provided by the Department of Virological Diagnosis, Chinese Preventative Medical Academy. Physiological saline and cell culture medium was provided by the Department of Virological Diagnosis, Chinese Preventative Medical Academy. Inverted microscope was provided by the Department of Virological Diagnosis, Chinese Preventative Medical Academy. Carbon dioxide incubator was provided by the Department of Virological Diagnosis, Chinese Preventative Medical Academy. And other related apparatuses: provided by the Department of Virological Diagnosis, Chinese Preventative Medical Academy.
Animals: BALB/c mice, female, body weight range of 18-20 grams. Animal license no. YDHZ 01-3003, supplied by the Animal Center of the Chinese Medical Academy and Peking Union Medical College.
1. Target of the experiments: The mice could develop viral vaginitis following infection with HSV-2. […] Statistical analysis, t values and p values, was calculated in comparison with the virus control group. Efficacy of the testing samples will be evaluated on the basis of statistical calculation.
2. […] The number of animals per group was 10. Ten additional animals that were not infected with HSV-2 and received no treatment served as the uninfected control group.
Treatment began on day 3 post-infection. This was achieved by applying the cream to the vaginal tract with cotton swabs. The creams were given at a dose of 2 mg per mouse twice daily for a six-day duration. Mortality and the number of days for lethality to occur were recorded. The experiment was repeated twice. The protection rates and life span extension rates were calculated. The efficacy of testing agents were judged in comparison with the […] on the basis of the calculated t values and p values.
The survival rate and number of days for lethality to occur were recorded. The latter was expressed as the average life span in days.

HSV-2, Strain no. 333 [4] = assay: Recovery of HSV-2 from vaginal samples of infected mice (CPE on Vero cells); assay type: in vivo, BALB/c mice; settings: Acyclovir cream 3 g %
HSV-induced cell fusion = settings: Srinivas et al.; cited from earlier work
HSV-1 [5] = assay: Plaque reduction assay (Example 3), HSV-1 on Vero cells; assay type: cell-based, herpes simplex virus type 1
[6] = system: HSV-1 (acyclovir-sensitive strain, BW-S strain); assay: Plaque reduction assay (Example 6), HSV-1 BW-S strain on Vero cells; assay type: cell-based, herpes simplex virus type 1
[7] = system: HSV-1 strain Delta gC2-3 (glycoprotein C deficient); assay: Plaque reduction assay, glycoprotein C deficient HSV-1; assay type: cell-based, herpes simplex virus type 1; settings: strain Delta gC2-3, plaque reduction assay
HSV-1 strain #15577 [8] = assay: Binding experiment: residual infectious virus after incubation with sample, strain #15577; assay type: cell-based, herpes simplex virus type 1; settings: 2 mg heparin with 10^5 pfu, 36° C., 1 h; water control = 100%
Description: (§1) The mixture was serially diluted in medium and the number of residual infectious virus was determined by the plaque assay. The number of plaque developed in the water treatment control was taken as 100%.

HSV-1 strain Delta gC2-3 = assay: Binding experiment: residual infectious virus after incubation with sample, Delta gC2-3; assay type: cell-based, herpes simplex virus type 1; settings: 2 mg heparin with 10^5 pfu, 36° C., 1 h; water control = 100%
Description: as §1

HSV-1 strain #15577 [9] = assay: Binding competition experiment, strain #15577; assay type: cell-based, herpes simplex virus type 1; settings: mixed with virus and used immediately
Description: (§2) The anti-herpes effect of sodium heparin was further investigated by a binding competition experiment. In this experiment, 0.5 ml samples of HSV-1 (about 100 pfu) were mixed with 0.5 ml of sodium heparin at different concentrations. The mixtures were immediately used to infect Vero cells at 37° C. for 1 h. Following the incubation, the number of plaques were determined in the plaque assay. […] At 1 mg/ml heparin, the % plaque inhibition was 92%. Similar results were obtained when the gC-deficient HSV-1, Delta gC2-3, was used. In which case, the % plaque inhibition for 62.5 μg/ml and 1 mg/ml heparin were 77% and 86%, respectively.

[10] = system: gC-deficient HSV-1, Delta gC2-3; assay: Binding competition experiment, Delta gC2-3; assay type: cell-based, herpes simplex virus type 1; settings: mixed with virus and used immediately
Description: as §2

wild-type HSV-1 = assay: Penetration assay, wild-type HSV-1 into Vero cells; assay type: cell-based, herpes simplex virus type 1
Description: (§3) Penetration Assay. The penetration assay was conducted using the method as described in Example with modifications. Confluent Vero cell monolayers in 25 ml tissue culture flasks were chilled to 4° C. for 45 mm. The monolayers were infected with 300 pfu of HSV-1 in 2.5 ml of cold MEM Earle's medium. Attachment was synchronized for 1 h at 4° C. The flasks were washed twice with 4 ml of cold PBS to remove any unbound virus. The monolayers were covered with 5 ml of maintenance medium and shifted to 37° C. […] The flasks were incubated at 37° C. for 90 min, after which the monolayers were washed twice with 4 ml of PBS and covered with 10 ml of 0.8% methylcellulose in maintenance medium. Plaque formation was allowed at 37° C. for 72 h. For the citrate buffer treated group, 3 ml of buffer was added to the monolayers for 1 min. The cells were washed twice with PBS, after which medium was added to allow plaque formation. For the no treatment control group, following medium removal, the monolayers were washed twice with PBS and medium added to allow plaque formation.
Citrate buffer at pH 3 represents the penetration kinetics of HSV into Vero cells. The low pH removes adherent virus particles from the cell surface (i.e., those that have not yet penetrated). At time 20 min, all the wild type virus particles have penetrated and can not be removed by the low pH buffer (Table 6). […] This reduction is less obvious than the heparin treatment. At time 0 min, only 19% of the virus could penetrate and form plaque as compared to 49% in the heparin treatment.

[11] = system: glycoprotein C-deficient mutant HSV-1; assay: Penetration assay, gC-deficient HSV-1 mutant into Vero cells; assay type: cell-based, herpes simplex virus type 1
Description: as §3
However, by 60 min, all the virus particles appeared to have penetrated.

[12] = Heparin 1000 μg/ml added at Time 0 min
[13] = Heparin 1000 μg/ml added at Time 10 min
[14] = Heparin 1000 μg/ml added at Time 20 min

O=Cc1cc(O)c(O)c(O)c1 [gallic aldehyde]
IC50 against HSV-1 (HSV-1 [1]): 12.5 µg/mL (≈ 81.1 µM)

prunellin
pH in aqueous solution [2]: 7.4

Nc1nc2c(ncn2COCCO)c(=O)[nH]1 [Acyclovir]
Extent of Skin Pathological Changes EPC (Mean ± SD) (HSV-1, Strain no. SM44; Day 4 (start of treatment)): 3.87 ± 0.12 cm^2 | Inhibition rate IR (HSV-1, Strain no. SM44; Day 4 (start of treatment)): 0% | Extent of Skin Pathological Changes EPC (Mean ± SD) (HSV-1, Strain no. SM44; Day 5): 3.54 ± 0.22 cm^2 | Inhibition rate IR (HSV-1, Strain no. SM44; Day 5): 11% | Extent of Skin Pathological Changes EPC (Mean ± SD) (HSV-1, Strain no. SM44; Day 6): 2.77 ± 0.40 cm^2 | Inhibition rate IR (HSV-1, Strain no. SM44; Day 6): 30% | Extent of Skin Pathological Changes EPC (Mean ± SD) (HSV-1, Strain no. SM44; Day 7): 2.02 ± 0.30 cm^2 | Inhibition rate IR (HSV-1, Strain no. SM44; Day 7): 44% | Extent of Skin Pathological Changes EPC (Mean ± SD) (HSV-1, Strain no. SM44; Day 8): 1.21 ± 0.38 cm^2 | Inhibition rate IR (HSV-1, Strain no. SM44; Day 8): 63% | Extent of Skin Pathological Changes EPC (Mean ± SD) (HSV-1, Strain no. SM44; Day 9): 0.82 ± 0.16 cm^2 | Inhibition rate IR (HSV-1, Strain no. SM44; Day 9): 71% | Extent of Skin Pathological Changes EPC (Mean ± SD) (HSV-1, Strain no. SM44; Day 10): 0.38 ± 0.18 cm^2 | Inhibition rate IR (HSV-1, Strain no. SM44; Day 10): 84% | Extent of Skin Pathological Changes EPC (Mean ± SD) (HSV-1, Strain no. SM44; Day 11): 0.09 ± 0.19 cm^2 | Inhibition rate IR (HSV-1, Strain no. SM44; Day 11): 96% | signs of paralysis in lower limbs (HSV-1, Strain no. SM44; cream-treated groups, seen in some animals of the virus control group): not observed | Life Span Extension Rate (HSV-2, Strain no. 333 [3]): 81.2% | Protection Rate (HSV-2, Strain no. 333 [3]): 78.6% | Survival (HSV-2, Strain no. 333 [3]): 80% | No. of death (HSV-2, Strain no. 333 [3]; 30 animals): 6 | No. of survival (HSV-2, Strain no. 333 [3]; 30 animals): 24 | Life Span Extension Rate (HSV-2, Strain no. 333 [3]; listed as acyclovir): 81.3% | Therapeutic Rate (HSV-2, Strain no. 333 [4]): 71% | No. of samples containing HSV-2 After Treatment (HSV-2, Strain no. 333 [4]; 30 vaginal samples): 8 | No. of samples containing HSV-2 Before Treatment (HSV-2, Strain no. 333 [4]; 30 vaginal samples): 30

apolipoprotein A-I: high density serum apolipoprotein A-I
concentration inhibiting HSV-induced cell fusion (HSV-induced cell fusion): 1 µM

geponin
IC50 against HSV-1 (HSV-1 [1]): 25 µg/mL

heparin
IC50 (HSV-1 [5]; HSV-1 strain #15577, plaque reduction assay): 750 µg/mL | IC50 values (HSV-1 [5]; plaque reduction assay, added 1 h after virus, strains 15577 and Delta gC2-3): 750 to 1000 µg/mL | anti-HSV-1 IC50 [6]: 300 µg/mL | IC50 [7]: > 1000 µg/mL | original virus still infectious (HSV-1 strain #15577 [8]): 30% | original virus still infectious (HSV-1 strain Delta gC2-3): 42% | % plaque inhibition (HSV-1 strain #15577 [9]; 62.5 μg/ml): 88% | % plaque inhibition (HSV-1 strain #15577 [9]; 1 mg/ml): 92% | % plaque inhibition ([10]; 62.5 μg/ml): 77% | % plaque inhibition ([10]; 1 mg/ml): 86% | % Plaques (wild-type HSV-1; [12]): 49% | % Plaques (wild-type HSV-1; Heparin 1000 μg/ml added at Time 2 min): 57% | % Plaques (wild-type HSV-1; Heparin 1000 μg/ml added at Time 4 min): 88% | % Plaques (wild-type HSV-1; Heparin 1000 μg/ml added at Time 6 min): 86% | % Plaques (wild-type HSV-1; [13]): 100% | % Plaques (wild-type HSV-1; Heparin 1000 μg/ml added at Time 15 min): 100% | % Plaques (wild-type HSV-1; [14]): 100% | % Plaques [11, 12]: 62% | % Plaques [11, 13]: 90% | % Plaques [11, 14]: 100% | % Plaques ([11]; Heparin 1000 μg/ml added at Time 30 min): 100% | % Plaques ([11]; Heparin 1000 μg/ml added at Time 40 min): 100% | % Plaques ([11]; Heparin 1000 μg/ml added at Time 50 min): 84% | % Plaques ([11]; Heparin 1000 μg/ml added at Time 60 min): 100% | effects on the penetration of the gC-deficient mutant into Vero cells ([11]; heparin 1000 μg/ml, in words): no apparent effects
